3 molecules from ChEMBL document CHEMBL1137043, “Development of a polyvalent assay system for lead identification” (Bioorg Med Chem Lett, 2004) can be followed below.

*1 amine or outer side, *2 acyl side, *3 side chain or, on linkers, in order; H or OH if unused. Where a SMILES comes first, the peptide text is derived from it. [ ]: non-standard residue; d: D form. X1 = O=C(O)COc1ccc(C[C@H](N[*:1])C(=O)[*:2])cc1C(=O)O

The experiment concerns the target T1, Tyrosine-protein phosphatase non-receptor type 1 (Homo sapiens, UniProt P18031).
T1 sequence (P18031 whole entry): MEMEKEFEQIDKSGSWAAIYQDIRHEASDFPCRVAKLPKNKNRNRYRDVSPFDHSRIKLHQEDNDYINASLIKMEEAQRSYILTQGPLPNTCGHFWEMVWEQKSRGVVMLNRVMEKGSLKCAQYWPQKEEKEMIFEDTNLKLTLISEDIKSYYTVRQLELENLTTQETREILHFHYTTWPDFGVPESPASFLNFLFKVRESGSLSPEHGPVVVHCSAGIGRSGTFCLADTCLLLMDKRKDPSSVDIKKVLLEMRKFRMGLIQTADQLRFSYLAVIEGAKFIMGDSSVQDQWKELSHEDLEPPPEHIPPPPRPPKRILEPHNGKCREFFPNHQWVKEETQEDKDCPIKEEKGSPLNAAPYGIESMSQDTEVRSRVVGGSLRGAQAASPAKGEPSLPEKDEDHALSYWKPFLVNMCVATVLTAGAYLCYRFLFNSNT
The experiment can be described thus: In vitro inhibitory concentration against Protein-tyrosine phosphatase 1B hydrolysis of p-nitrophenol phosphate.
As usually defined, the Ki is the dissociation constant of the complex between target and ligand, obtained from inhibition or displacement. `CCC(C)[C@H](NC(=O)C(Cc1ccc(OCC(=O)O)c(C(=O)O)c1)NC(=O)[C@H](CC(=O)O)NC(C)=O)C(N)=O` (stereo partly drawn) gave a Ki of 41 µM.
Turning to `CC[C@@H](C)[C@H](NC(=O)C(Cc1ccc(OCC(=O)O)c(C(=O)O)c1)NC(=O)[C@H](CC(=O)O)NC(C)=O)C(=O)N[C@@H](CCCN=C(N)N)C(N)=O` (stereo partly drawn), the Ki stood at 11 µM.
For the molecule `CC[C@H](C)[C@H](NC(=O)[C@H](Cc1ccc(OCC(=O)O)c(C(=O)O)c1)NC(=O)[C@H](CC(=O)O)NC(C)=O)C(=O)N[C@@H](CCCN=C(N)N)C(=O)NCC(=O)NCC(=O)NCC(N)=O` (Ac-D[X1]IRGGG-NH2), the Ki was found to be 18 µM.
